# Data from patent US9156822B2, “Functionally selective ligands of dopamine D2 receptors” (The University of North Carolina at Chapel Hill, priority 2010, dated 2015).
# Entries after “also recorded” stand apart in the source; their conditions may differ. Where two headings read alike, the source gives them in different places.
# What was measured:
# 5HT1A [1] = target: T1, 5HT1A (Homo sapiens (Human), UniProt P08908); test: 5HT1A binding
# 5HT2B [2] = target: T2, 5HT2B (Homo sapiens (Human), UniProt P41595)
# hD2 receptors = hD2 receptors (Homo sapiens (Human), UniProt P14416); test: D2 mediated cAMP GloSensor assay; assay type: cell-based
# D4 dopamine receptor = D4 dopamine receptor (Homo sapiens (Human), UniProt P21917); details: read-out: D4/binding (Ki)
# 5HT2A [3] = target: T3, 5HT2A (Homo sapiens (Human), UniProt P28223); test: 5HT2A FLIPR (Ca2+ mobilization); assay type: cell-based
# D2 receptors [4] = target: T4, D2 receptors (Homo sapiens (Human), UniProt P14416); test: CHO-D2 radioligand binding assay ([3H]N-methylspiperone competition)
# Target sequence in this assay (P14416 whole entry): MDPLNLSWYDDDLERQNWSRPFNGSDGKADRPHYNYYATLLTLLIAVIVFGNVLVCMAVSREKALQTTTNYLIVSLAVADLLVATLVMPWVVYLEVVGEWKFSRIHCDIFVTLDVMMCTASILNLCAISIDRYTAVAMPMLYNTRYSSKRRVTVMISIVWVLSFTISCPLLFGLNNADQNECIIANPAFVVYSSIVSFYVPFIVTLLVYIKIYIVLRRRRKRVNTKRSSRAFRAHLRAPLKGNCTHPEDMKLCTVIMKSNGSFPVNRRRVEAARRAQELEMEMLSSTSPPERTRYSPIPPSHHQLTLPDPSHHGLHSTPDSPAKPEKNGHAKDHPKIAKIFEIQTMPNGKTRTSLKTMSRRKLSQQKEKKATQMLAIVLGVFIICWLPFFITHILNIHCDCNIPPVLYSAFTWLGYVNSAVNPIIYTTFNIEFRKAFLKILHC
# 5HT2C [5] = target: T5, 5HT2C (Homo sapiens (Human), UniProt P28335); details: read-out: 5HT2C/binding (Ki)
# 5HT2B [6] = target: T2, 5HT2B; test: cell-based
# 5HT2A [7] = target: T3, 5HT2A; test: biochemical
# D1 dopamine receptor = D1 dopamine receptor (Homo sapiens (Human), UniProt P21728); details: read-out: D1/binding (Ki)
# 5HT2C [8] = target: T5, 5HT2C; test: 5HT2C FLIPR (Ca2+ mobilization); assay type: cell-based
# 5HT2C [9] = target: T5, 5HT2C; test: biochemical
# 5HT2B [10] = target: T2, 5HT2B; test: biochemical
# 5HT1A [11] = target: T1, 5HT1A; test: 5HT1A cAMP biosensor; assay type: cell-based
# 5HT2A [12] = target: T3, 5HT2A; details: read-out: 5HT2A/binding (Ki)
# D2 receptors [13] = target: T4, D2 receptors; test: D2 β-arrestin recruitment (Tango) assay; assay type: cell-based
# Procedure: The next day, cells were plated in white, clear-bottom, 384-well plates (Greiner, 10,000 cells/well, 50 μl/well) in DMEM containing 1% dialyzed fetal bovine serum. […] Data were normalized to vehicle (0%) and quinpirole (100%) controls and regressed using the sigmoidal dose-response function built into GraphPad Prism 4.0.
# Target sequence in this assay (P14416 whole entry, looked up): as the sequence (P14416 whole entry) above
# hD2L dopamine receptor = hD2L dopamine receptor (Homo sapiens (Human), UniProt P14416); test: pERK high-content assay; assay type: cell-based; details: normalized to dopamine; read-out: p-ERK Emax
# Procedure: On day 1 of the assay, cells were seeded onto black clear-bottom tissue culture-treated 96-well plates (Greiner, BioOne). On day 2 of the assay, cells were washed with serum-free medium (Ham's F-12, penicillin and streptomycin) and incubated in 100 μL serum-free medium overnight.
# Immunofluorescence: Automatic multichannel pipetters were used for liquid handling and multichannel vacuum manifolds for aspirations. Each tested concentration was typically measured in triplicate or quadruplicate. For concentration curves, half-log-dilutions were used. Drug dilutions were prepared in stimulation medium (serum-free medium, 100 mg/L ascorbic acid). 100 μM dopamine and 1 μM PMA (phorbol 12-myristate 13-acetate) were used as positive controls. Medium only was used as a negative control. Specificity of the response was confirmed by pretreatment for 5 min with 10 μM of the antagonist spiperone and in experiments using wild type CHO cells.
# Cells were stimulated on day 3 by fast addition of 50 μL equilibrated 3× drug dilutions in a tissue culture incubator for 5 min. Plates were placed on ice, the medium was aspirated, and 100 μL/well of freshly prepared ice-cold fixing buffer (4% formaldehyde and 0.5 mM CaCl2 in PBS) solution was added. After 30 min fixing at room temperature, the plates were washed with 350 μL/well PBS/Ca (0.5 mM CaCl2 in PBS) and permeabilized for 20 min in 100 μL/well 0.3% Triton X-100 in PBS/Ca. […] Plates were washed three times with 250 μL/well washing buffer, post-fixed for 10 min in fixing buffer, washed with 250 μl PBS/Ca, filled with 200 μL/well PBS/Ca, sealed with transparent adhesive plate seals, and stored at 4° C.
# The Alexa594 light path was used for the target signal, Alexa488 for whole cell staining, and Hoechst for the nuclear staining. Images were analyzed using the CellProfiler software. […] Concentration curves were analyzed in GraphPad Prism by fitting against a sigmoidal dose-response model and normalization to the dopamine curve.
# [14] = mouse
# H1-histamine receptor = H1-histamine receptor (Homo sapiens (Human), UniProt P35367); test: H1 binding
# D5 dopamine receptor = D5 dopamine receptor (Homo sapiens (Human), UniProt P21918); details: read-out: D5/binding (Ki)
# in vivo = details: mouse
# [15] = tested on: wild-type and β-arrestin-2 knockout mice; details: i.p., 6 mg/kg PCP
# D3-dopamine receptor = D3-dopamine receptor (Homo sapiens (Human), UniProt P35462); details: read-out: D3/binding (Ki)
# 5HT2B [16] = target: T2, 5HT2B; details: read-out: 5HT2B/binding (Ki)
# C57BL/6 mice = details: i.p., 3 mg/kg D-amphetamine
# [17] = tested on: wild-type and β-arrestin-2 knockout mice; details: i.p., 5.0 mg/kg (haloperidol 2.0 mg/kg), 30 and 60 min
# T2 sequence (P41595 whole entry, species assumed): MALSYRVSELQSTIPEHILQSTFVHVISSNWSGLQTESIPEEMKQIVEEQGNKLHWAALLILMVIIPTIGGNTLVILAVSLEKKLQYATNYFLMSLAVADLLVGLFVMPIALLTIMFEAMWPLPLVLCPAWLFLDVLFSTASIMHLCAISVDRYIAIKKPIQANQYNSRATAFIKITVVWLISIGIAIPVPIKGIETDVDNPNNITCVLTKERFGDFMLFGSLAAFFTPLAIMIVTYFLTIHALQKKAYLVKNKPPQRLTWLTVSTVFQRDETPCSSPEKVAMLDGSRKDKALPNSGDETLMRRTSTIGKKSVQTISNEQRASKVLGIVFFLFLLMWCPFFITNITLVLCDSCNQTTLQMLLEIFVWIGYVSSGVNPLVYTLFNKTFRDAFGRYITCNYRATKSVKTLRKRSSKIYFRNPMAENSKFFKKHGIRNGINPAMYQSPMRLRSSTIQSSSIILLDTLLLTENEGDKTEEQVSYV
# T5 sequence (P28335 33-458, species assumed): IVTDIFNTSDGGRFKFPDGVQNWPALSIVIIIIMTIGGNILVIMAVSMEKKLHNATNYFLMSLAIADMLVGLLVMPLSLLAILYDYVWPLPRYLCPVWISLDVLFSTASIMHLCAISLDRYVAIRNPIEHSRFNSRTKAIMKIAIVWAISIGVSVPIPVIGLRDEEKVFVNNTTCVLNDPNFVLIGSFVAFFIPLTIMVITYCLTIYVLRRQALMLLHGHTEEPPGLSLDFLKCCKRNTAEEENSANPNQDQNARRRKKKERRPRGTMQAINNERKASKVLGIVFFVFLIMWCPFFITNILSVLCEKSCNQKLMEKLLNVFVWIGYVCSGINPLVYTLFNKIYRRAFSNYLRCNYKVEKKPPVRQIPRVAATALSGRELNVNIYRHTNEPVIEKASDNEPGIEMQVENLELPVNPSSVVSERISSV
# Chain of H1-histamine receptor (P35367 whole entry): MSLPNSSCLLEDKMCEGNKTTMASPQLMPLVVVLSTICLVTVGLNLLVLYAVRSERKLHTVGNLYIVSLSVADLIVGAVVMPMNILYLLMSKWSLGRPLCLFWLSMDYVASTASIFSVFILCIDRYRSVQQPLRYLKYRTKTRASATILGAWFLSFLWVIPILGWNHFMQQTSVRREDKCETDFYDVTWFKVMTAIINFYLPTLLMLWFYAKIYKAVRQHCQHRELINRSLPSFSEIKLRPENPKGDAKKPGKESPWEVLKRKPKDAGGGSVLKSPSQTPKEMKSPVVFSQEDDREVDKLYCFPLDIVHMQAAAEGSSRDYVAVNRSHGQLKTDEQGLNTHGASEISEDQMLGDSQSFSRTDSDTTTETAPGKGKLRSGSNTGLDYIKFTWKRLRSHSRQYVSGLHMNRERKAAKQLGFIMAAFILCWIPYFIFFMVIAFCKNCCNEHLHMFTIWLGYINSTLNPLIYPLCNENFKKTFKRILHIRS
# Chain of hD2 receptors (P14416 whole entry): as the sequence (P14416 whole entry) above
# Chain of D5 dopamine receptor (P21918 whole entry): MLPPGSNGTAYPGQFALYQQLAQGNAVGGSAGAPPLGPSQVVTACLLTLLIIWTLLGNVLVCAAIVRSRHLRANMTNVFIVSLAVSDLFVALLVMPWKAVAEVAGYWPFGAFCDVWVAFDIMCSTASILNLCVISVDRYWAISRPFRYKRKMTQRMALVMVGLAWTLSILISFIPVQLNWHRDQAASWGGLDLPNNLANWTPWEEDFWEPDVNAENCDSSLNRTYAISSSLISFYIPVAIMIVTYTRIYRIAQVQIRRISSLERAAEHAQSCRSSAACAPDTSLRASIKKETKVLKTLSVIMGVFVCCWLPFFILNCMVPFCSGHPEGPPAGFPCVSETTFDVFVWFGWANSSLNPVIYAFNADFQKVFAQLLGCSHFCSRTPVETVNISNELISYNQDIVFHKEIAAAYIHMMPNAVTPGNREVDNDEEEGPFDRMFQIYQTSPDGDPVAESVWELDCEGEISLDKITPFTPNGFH
# Chain of D4 dopamine receptor (P21917 whole entry): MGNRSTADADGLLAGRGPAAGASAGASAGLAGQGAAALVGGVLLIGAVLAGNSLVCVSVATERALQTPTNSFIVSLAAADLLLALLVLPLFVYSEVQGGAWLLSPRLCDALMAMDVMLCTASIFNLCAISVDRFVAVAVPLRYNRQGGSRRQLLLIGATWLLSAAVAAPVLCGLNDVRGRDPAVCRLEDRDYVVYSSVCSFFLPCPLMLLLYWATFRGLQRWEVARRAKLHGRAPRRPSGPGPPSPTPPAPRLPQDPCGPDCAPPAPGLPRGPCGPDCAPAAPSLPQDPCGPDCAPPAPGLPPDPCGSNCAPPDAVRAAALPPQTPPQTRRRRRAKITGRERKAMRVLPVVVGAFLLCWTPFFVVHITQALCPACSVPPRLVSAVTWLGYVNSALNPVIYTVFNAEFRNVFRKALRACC
# Chain of D1 dopamine receptor (P21728 whole entry): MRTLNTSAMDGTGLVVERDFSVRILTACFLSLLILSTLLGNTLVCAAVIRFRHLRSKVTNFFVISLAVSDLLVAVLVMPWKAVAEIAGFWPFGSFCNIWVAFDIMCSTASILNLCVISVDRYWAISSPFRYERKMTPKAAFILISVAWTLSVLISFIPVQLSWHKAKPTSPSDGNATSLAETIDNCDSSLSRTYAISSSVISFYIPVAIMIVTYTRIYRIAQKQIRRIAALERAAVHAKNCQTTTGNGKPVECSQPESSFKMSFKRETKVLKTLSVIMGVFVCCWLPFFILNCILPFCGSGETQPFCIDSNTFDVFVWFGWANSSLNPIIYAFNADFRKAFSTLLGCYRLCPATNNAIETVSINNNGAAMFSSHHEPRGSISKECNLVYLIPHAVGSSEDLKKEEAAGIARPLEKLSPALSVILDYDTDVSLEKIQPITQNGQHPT
# Chain of hD2L dopamine receptor (P14416 whole entry): as the sequence (P14416 whole entry) above
# Chain of D3-dopamine receptor (P35462 whole entry): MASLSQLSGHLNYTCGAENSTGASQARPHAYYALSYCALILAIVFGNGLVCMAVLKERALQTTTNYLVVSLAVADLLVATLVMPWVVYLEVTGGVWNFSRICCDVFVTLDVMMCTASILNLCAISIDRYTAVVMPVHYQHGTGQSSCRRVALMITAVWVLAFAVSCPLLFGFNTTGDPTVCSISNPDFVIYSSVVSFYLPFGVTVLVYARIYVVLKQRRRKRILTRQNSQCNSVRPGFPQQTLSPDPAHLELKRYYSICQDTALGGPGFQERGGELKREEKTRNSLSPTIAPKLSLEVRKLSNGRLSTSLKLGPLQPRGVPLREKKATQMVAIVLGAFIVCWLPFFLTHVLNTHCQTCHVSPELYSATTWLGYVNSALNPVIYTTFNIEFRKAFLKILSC
compound,measurement,setting,value
"O=C1CCc2ccc(OCCCCN3CCCN(c4cccc(Cl)c4Cl)CC3)nc2N1 [Compound 3, 7-(4-(4-(2,3-dichlorophenyl)-1,4-diazepan-1-yl)butoxy)-3,4-dihydro-1,8-naphthyridin-2(1H)-one]",Ki,5HT1A [1]; read-out: 5HT1A/binding (Ki),29 nM
same,functional mode at 5HT2B,5HT2B [2],antagonists
same,EC50,hD2 receptors,13 nM
same,Emax,hD2 receptors; read-out: cAMP (GloSensor) Emax,-94%
same,Ki,D4 dopamine receptor,178 nM
same,IC50,5HT2A [3],660 nM
same,functional mode at 5HT2A,5HT2A [3],antagonists
same,Ki,"D2 receptors [4]; Table 7, read-out: D2/binding (Ki)",< 10 nM
same,Ki,D2 receptors [4]; read-out: D2/binding (Ki),2.6 nM
same,Ki,D2 receptors [4]; read-out: D2 Binding Ki ± SEM,1.2 ± 0.1 nM
same,Ki,5HT2C [5],99 nM
same,IC50,5HT2B [6],76 nM
same,Ki,5HT2A [7],0.6 to 250 nM
same,Ki,D1 dopamine receptor,1040 nM
same,functional mode at 5HT2C,5HT2C [8],antagonists
same,IC50,5HT2C [8]; read-out: 5HT2C/FLIPR (IC50),2200 nM
same,Ki,5HT2C [9],0.6 to 250 nM
same,Ki,5HT2B [10],0.6 to 250 nM
same,EC50,5HT1A [11]; read-out: 5HT1A/cAMP (EC50),1800 nM
same,EC50,"5HT1A [11]; text bound, read-out: 5HT1A EC50 (weak agonists)",> 1000 nM
same,Ki,5HT2A [12],7.4 nM
same,β-arrestin (Tango) % activ at 1 μM,D2 receptors [13]; 1 μM,11%
same,EC50,"D2 receptors [13]; HTLA cells, read-out: β-arrestin (Tango) EC50",3.3 nM
same,Emax,D2 receptors [13]; normalized to quinpirole (100%),44%
same,Emax,hD2L dopamine receptor,< 5%
same,"brain exposure level, fold lower compared to aripiprazole",[14],about 3 fold
same,Brain/Plasma Ratio,[14]; 0.08 h,0.57 mL/g
same,Brain/Plasma Ratio,[14]; 0.5 h,1.12 mL/g
same,Brain/Plasma Ratio,[14]; 1 h,1.29 mL/g
same,Brain/Plasma Ratio,[14]; 2 h,3.67 mL/g
same,Brain/Plasma Ratio,[14]; 4 h,12.26 mL/g
same,Brain/Plasma Ratio,[14]; […],0.80 mL/g
same,Ki,H1-histamine receptor,6.1 nM
same,Ki,D5 dopamine receptor,513 nM
same,AUC(0-inf),in vivo; brain,329 ng·h/mL
same,AUC(0-t),in vivo; brain,267 ng·h/mL
same,Cmax,in vivo; brain,49.8 ng/mL
same,Tmax,in vivo; brain,15 min
same,concentration at 0.08 h,in vivo; brain,37.8 ng/g
same,concentration at 0.5 h,in vivo; brain,27.2 ng/g
same,concentration at 1 h,in vivo; brain,31.2 ng/g
same,concentration at 2 h,in vivo; brain,23 ng/g
same,concentration at 4 h,in vivo; brain,16.9 ng/g
same,concentration at 8 h,in vivo; brain,9.9 ng/g
same,concentration at 24 h,in vivo; brain,4.2 ng/g
same,half-life,in vivo; brain,636 min
same,AUC(0-inf),in vivo; plasma,61.5 ng·h/mL
same,AUC(0-t),in vivo; plasma,59.9 ng·h/mL
same,Cmax,in vivo; plasma,70.6 ng/mL
same,Tmax,in vivo; plasma,4.8 min
same,concentration at 0.08 h,in vivo; plasma,70.6 ng/mL
same,concentration at 0.5 h,in vivo; plasma,23.7 ng/mL
same,concentration at 1 h,in vivo; plasma,24.6 ng/mL
same,concentration at 2 h,in vivo; plasma,6.3 ng/mL
same,concentration at 4 h,in vivo; plasma,1.4 ng/mL
same,concentration at 8 h,in vivo; plasma,0 ng/mL
same,concentration at 24 h,in vivo; plasma,0 ng/mL
same,half-life,in vivo; plasma,48.6 min
same,antipsychotic-like activity in PCP-induced hyperlocomotion,[15]; wild-type mice,potent antipsychotic-like activity
same,antipsychotic-like activity in PCP-induced hyperlocomotion,[15]; β-arrestin-2 knockout mice,attenuated
same,Ki,D3-dopamine receptor,11 nM
same,Ki,5HT2B [16],1.1 nM
same,antipsychotic-like activity in D-amphetamine-induced hyperlocomotion,C57BL/6 mice,potent antipsychotic-like activity
same,"catalepsy (latency to move, inclined screen test)","[17]; wild-type mice, listed as UNC9975",do not induce catalepsy
same,"catalepsy (latency to move, inclined screen test)","[17]; β-arrestin-2 knockout mice, listed as UNC9975",induced catalepsy; also recorded: inducing catalepsy
"O=C1CCc2ccc(OCCCCN3CCCN(c4cccc(Cl)c4Cl)CC3)cc2N1 [Compound 2, 7-(4-(4-(2,3-dichlorophenyl)-1,4-diazepan-1-yl)butoxy)-3,4-dihydroquinolin-2(1H)-one]",Ki,5HT1A [1],0.6 to 250 nM
same,Ki,5HT1A [1]; read-out: 5HT1A/binding (Ki),60 nM
same,functional mode at 5HT2B,5HT2B [2],antagonists
same,functional mode at 5HT2A,5HT2A [3],antagonists
same,Ki,5HT2C [5],115 nM
same,IC50,5HT2B [6],115 nM
same,IC50,5HT2C [8],3600 nM
same,functional mode at 5HT2C,5HT2C [8],antagonists
same,Ki,5HT2C [9],0.6 to 250 nM
same,Ki,5HT2B [10],0.6 to 250 nM
same,EC50,5HT1A [11],> 1000 nM
same,EC50,5HT1A [11]; read-out: 5HT1A/cAMP (EC50),2500 nM
same,Ki,H1-histamine receptor,4.5 nM
same,Ki,5HT2B [16],0.6 nM
same,"catalepsy (latency to move, inclined screen test)","[17]; wild-type mice, listed as UNC0006",do not induce catalepsy
same,"catalepsy (latency to move, inclined screen test)","[17]; β-arrestin-2 knockout mice, listed as UNC0006",induced catalepsy; also recorded: inducing catalepsy
